Experimental data from patent US10800755B2, “2,6-disubstituted pyridine derivative” (Sumitomo Dainippon Pharma Co., Ltd., priority 2017, dated 2020).
Read-outs that look alike come from different tables or passages of the source.

How the values were obtained:
human 5-HT1A receptor [1] = target: T1, human 5-HT1A receptor (Homo sapiens (Human), UniProt P08908); assay: Test 2: binding activity to human 5-HT1A receptor ([3H] 8-OH-DPAT, CHO cell membrane); conditions: [3H] 8-OH-DPAT; read-out: 5-HT1A binding affinity (Ki value)
T1 sequence (P08908 whole entry): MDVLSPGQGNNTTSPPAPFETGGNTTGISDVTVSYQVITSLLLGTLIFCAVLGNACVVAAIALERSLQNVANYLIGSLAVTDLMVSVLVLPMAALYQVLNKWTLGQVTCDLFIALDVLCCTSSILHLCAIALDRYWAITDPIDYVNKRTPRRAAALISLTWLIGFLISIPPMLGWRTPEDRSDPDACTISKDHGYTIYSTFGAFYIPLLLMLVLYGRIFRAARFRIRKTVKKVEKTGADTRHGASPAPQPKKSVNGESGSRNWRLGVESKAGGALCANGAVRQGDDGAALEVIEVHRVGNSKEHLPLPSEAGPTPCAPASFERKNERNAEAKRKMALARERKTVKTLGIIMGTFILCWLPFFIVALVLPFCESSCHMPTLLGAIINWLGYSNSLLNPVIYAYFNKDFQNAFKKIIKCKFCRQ
Method: (§1) Test 2: Evaluation of Binding Activity to Human 5-HT1A Receptor, Human D4 Receptor, and Human D2 Receptor
(§2) CHO cell membrane fraction in which human 5-HT1A receptor, human D4 receptor, and human D2 receptor were expressed was purchased from PerkinElmer Co., Ltd. In the evaluation test of binding, the test compound dissolved in DMSO, each receptor membrane preparation diluted with buffer solution, and [3H] […] The nonspecific binding to each receptor was evaluated by a competition binding experiment in the presence of 10 μmol/L 8-OH-DPAT, 10 μmol/L dopamine, or 10 μmol/L spiperone, respectively.

human D4 receptor [2] = target: T2, human D4 receptor (Homo sapiens (Human), UniProt P21917); assay: Test 1: agonistic activity for human D4 receptor (aequorin/Gα16 luminescence in CHO-K1 cell); type: cell-based; conditions: for Emax: CHO-K1; for Emax / D4 agonistic activity Emax: 100% = 10 μmol/L endogenous ligand; for EC50: CHO-K1 cell, aequorin luminescence
T2 sequence (P21917 whole entry): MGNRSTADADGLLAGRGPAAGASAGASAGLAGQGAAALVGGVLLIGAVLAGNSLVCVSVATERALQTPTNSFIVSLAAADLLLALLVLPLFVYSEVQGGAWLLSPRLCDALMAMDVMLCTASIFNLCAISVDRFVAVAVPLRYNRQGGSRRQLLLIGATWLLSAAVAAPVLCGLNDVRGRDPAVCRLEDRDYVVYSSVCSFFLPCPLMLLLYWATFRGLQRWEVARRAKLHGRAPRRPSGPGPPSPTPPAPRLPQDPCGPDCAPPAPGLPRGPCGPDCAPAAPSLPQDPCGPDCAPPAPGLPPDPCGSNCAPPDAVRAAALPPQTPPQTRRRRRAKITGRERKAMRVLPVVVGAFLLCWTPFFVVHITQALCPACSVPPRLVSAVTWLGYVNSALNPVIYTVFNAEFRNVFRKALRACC
Method: (§3) Test 1: Evaluation of Agonistic Activity for Human 5-HT1A Receptor and Human D4 Receptor
(§4) Aequorin, Gα16 proteins, and each receptor were transiently expressed in CHO-K1 cell (Chinese hamster ovary), and seeded to 384-well plate. The plate was incubated in a CO2 incubator at 37° C. for 24 hours. Each example compound dissolved in DMSO was added thereto, and the change of luminescence amount was measured with Hamamatsu FDSS/μCELL System (Hamamatsu Photonics).

human D4 receptor [3] = target: T2, human D4 receptor; assay: Test 2: binding activity to human D4 receptor ([3H] dopamine, CHO cell membrane)
Method: as §1, §2

human D2 receptor = human D2 receptor (Homo sapiens (Human), UniProt P14416); assay: Test 2: binding activity to human D2 receptor ([3H] spiperone, CHO cell membrane); conditions: [3H] spiperone; read-out: D2 binding affinity (Ki value)
Sequence of human D2 receptor (P14416 whole entry): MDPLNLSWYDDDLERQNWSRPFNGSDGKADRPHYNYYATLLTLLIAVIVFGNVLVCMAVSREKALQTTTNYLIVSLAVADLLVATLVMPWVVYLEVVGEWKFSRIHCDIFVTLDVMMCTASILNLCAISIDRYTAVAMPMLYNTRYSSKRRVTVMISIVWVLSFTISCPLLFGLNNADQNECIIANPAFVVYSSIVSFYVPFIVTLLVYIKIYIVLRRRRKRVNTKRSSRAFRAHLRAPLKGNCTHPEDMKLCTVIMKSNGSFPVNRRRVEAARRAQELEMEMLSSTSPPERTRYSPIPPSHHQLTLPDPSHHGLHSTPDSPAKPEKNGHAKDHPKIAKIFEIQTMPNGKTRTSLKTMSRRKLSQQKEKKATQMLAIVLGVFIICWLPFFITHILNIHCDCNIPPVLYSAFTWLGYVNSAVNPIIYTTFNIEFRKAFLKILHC
Method: as §1, §2

human 5-HT1A receptor [4] = target: T1, human 5-HT1A receptor; assay: Test 1: agonistic activity for human 5-HT1A receptor (aequorin/Gα16 luminescence in CHO-K1 cell); type: cell-based; conditions: for Emax: CHO-K1; for Emax / 5-HT1A agonistic activity Emax: 100% = 10 μmol/L endogenous ligand; for EC50: CHO-K1 cell, aequorin luminescence
Method: as §3, §4

[5] = Test 3-1: metabolic stability test of human liver microsome (0.1 mg/mL); type: in vitro ADME; conditions: test compound 0.1 μmol/L, 37° C., 30 minutes
Method: Test 3-1: Metabolic Stability Test of Human Liver Microsome
The stability of the present compounds for human liver microsome metabolism was evaluated as mentioned below. The used human liver microsome was obtained from Xenontech. Human liver microsome, NADPH, and each test compound were mixed in 25 mmol/L phosphate buffer solution (pH 7.4) to adjust each concentration as shown below, and the mixture was incubated at 37° C. for 30 minutes. • human liver microsome: 0.1 mg/mL • NAPDH: 3.2 mmol/L • test compound: 0.1 μmol/L
The residual ratio of the test compound in each sample after the incubation for 30 minutes was measured with a LC-MS, and the metabolic stability of human liver microsome was calculated about each test compound with the following formula. Metabolic stability of human liver microsome (mL/min/mg protein)=−LN (residual ratio)/“reaction time”/“concentration of human liver microsome”

hERG channel = hERG channel (Homo sapiens (Human), UniProt Q12809); assay: Test 5-2: activity for inhibiting hERG channel (whole-cell patch clamp, hERG-CHO cell, Qube); type: cell-based; conditions: read-out: hERG inhibition IC50
Sequence of hERG channel (Q12809 whole entry): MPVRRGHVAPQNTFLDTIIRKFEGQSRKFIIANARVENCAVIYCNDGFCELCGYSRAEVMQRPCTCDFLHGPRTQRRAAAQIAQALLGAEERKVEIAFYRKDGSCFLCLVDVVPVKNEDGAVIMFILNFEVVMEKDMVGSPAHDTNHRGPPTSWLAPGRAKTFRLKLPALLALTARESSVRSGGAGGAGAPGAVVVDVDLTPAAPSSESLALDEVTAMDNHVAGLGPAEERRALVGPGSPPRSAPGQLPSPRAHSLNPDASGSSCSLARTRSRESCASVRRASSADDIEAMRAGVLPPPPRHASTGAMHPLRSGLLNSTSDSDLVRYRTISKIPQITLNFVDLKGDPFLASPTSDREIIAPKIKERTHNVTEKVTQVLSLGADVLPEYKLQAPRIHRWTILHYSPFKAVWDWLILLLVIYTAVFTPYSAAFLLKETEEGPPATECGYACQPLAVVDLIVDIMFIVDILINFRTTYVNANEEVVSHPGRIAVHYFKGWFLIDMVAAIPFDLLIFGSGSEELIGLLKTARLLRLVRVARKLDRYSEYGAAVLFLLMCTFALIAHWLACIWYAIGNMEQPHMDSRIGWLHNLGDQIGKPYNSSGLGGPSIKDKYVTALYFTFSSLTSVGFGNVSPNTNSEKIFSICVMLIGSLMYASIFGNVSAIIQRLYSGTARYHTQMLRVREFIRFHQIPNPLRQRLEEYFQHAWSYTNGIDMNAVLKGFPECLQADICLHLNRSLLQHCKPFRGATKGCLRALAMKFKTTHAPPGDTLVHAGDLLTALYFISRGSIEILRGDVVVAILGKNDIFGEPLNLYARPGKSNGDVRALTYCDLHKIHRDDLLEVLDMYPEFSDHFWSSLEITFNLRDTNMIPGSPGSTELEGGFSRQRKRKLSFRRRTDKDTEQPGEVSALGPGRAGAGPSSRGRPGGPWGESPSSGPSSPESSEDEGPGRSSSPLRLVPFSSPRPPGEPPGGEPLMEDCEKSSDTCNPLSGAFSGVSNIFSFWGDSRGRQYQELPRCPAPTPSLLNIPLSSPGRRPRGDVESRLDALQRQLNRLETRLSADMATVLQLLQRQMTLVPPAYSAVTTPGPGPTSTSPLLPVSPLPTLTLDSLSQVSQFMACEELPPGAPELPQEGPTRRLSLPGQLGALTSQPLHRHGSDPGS
Method: Test 5-2: Evaluation of Activity for Inhibiting hERG Channel
The activity of the present compound for inhibiting hERG channel was measured by whole-cell patch clamp method with auto patch clamp system, using CHO cell wherein hERG channel involved in human rapidly activating delayed rectifier potassium current (IKr) was forcibly expressed.
hERG-CHO cell purchased from ChanTest was incubated at 37° C. in a CO2 incubator, and the cell was exfoliated from the flask with trypsin to prepare a cell suspension, shortly before the hERG current measurement.
Extracellular fluid: 2 mmol/L CaCl2, 1 mmol/L MgCl2, 10 mmol/L HEPES, 4 mmol/L KCl, 145 mmol/L NaCl, 10 mmol/L glucose
Intracellular fluid: 10 mmol/L HEPES, 10 mmol/L EGTA, 20 mmol/L KCl, 130 mmol/L KF
Test compound solution: The compound was dissolved in DMSO by adjusting the concentration to 2 mmol/L or 20 mmol/L to prepare each test compound solution. […] (Measurement of Current Value and Data Analysis)
The cell suspension, the extracellular fluid, the intracellular fluid, and the measurement plate were set in an auto patch clamp system, and the hERG current was measured by whole-cell patch clamp method. The voltage-protocol was as follows: the holding potential was adjusted to −80 mV, the depolarizing pulse was added at −50 mV to +20 mV for 5 seconds, the repolarizing pulse was added at −50 mV for 5 seconds, then the potential was returned to the holding potential. Each pulse interval was 15 seconds. The data analysis was carried out with Qube Assay Software (Sophion Scientific). The test was carried out applying increscently 4 concentrations of each test compound, and the average of the peak tail currents that were obtained by the last 3 stimulations in each applied concentration was made to be the evaluated data. By using the current inhibition rate for the pre-applied current at each concentration of each test compound, IC50 value was calculated by Hill equation with the software.

[6] = [3H] dopamine, read-out: D4 binding affinity (Ki value)

O=C(NCCN1CCC(c2cccc(C(F)(F)F)n2)CC1)C1CCOC1 (stereo not drawn) [Example 23]
Ki (human 5-HT1A receptor [1]): 166 nM | Emax (human D4 receptor [2]): 59% | EC50 (human D4 receptor [2]): 62 nM | Ki (human D4 receptor [3]; [6]): 408 nM | Ki (human D2 receptor): > 10000 nM | Emax (human 5-HT1A receptor [4]): 28% | EC50 (human 5-HT1A receptor [4]): 632 nM

COCC(C)(C)C(=O)NCCN1CCC(c2cccc(C)n2)CC1 [Example 5]
Ki (human 5-HT1A receptor [1]): 80 nM | D4 agonistic activity Emax (human D4 receptor [2]): 57% | EC50 (human D4 receptor [2]): 55.8 nM | Ki (human D4 receptor [3]; [6]): 170 nM | Metabolic stability of human liver microsome [5]: <0.01 mL/min/mg protein | Ki (human D2 receptor): > 10000 nM | 5-HT1A agonistic activity Emax (human 5-HT1A receptor [4]): 100% | EC50 (human 5-HT1A receptor [4]): 42 nM

CC(C)(C)C(=O)NCCN1CC=C(c2cccc(C(F)(F)F)n2)CC1 [Example 31, 2,2-Dimethyl-N-{2-[6-(trifluoromethyl)-3′,6′-dihydro[2,4′-bipyridin]-1′ (2′H)-yl]ethyl}propanamide]
Ki (human 5-HT1A receptor [1]): 0.3 nM | Emax (human D4 receptor [2]): 52% | EC50 (human D4 receptor [2]): < 10 nM | Ki (human D4 receptor [3]): 2.9 nM | Metabolic stability of human liver microsome [5]: <0.05 mL/min/mg protein | IC50 (hERG channel): > 10000 nM | Ki (human D2 receptor): 1280 nM | Emax (human 5-HT1A receptor [4]): 40% | EC50 (human 5-HT1A receptor [4]): 35 nM

Cc1cccc(C2CCN(CCNC(=O)C3CCCOC3)CC2)n1 (stereo not drawn) [Example 15]
Ki (human 5-HT1A receptor [1]): 13 nM | Emax (human D4 receptor [2]): 55% | EC50 (human D4 receptor [2]): 41 nM | Ki (human D4 receptor [3]; [6]): 505 nM | Metabolic stability of human liver microsome [5]: <0.05 mL/min/mg protein | IC50 (hERG channel): > 10000 nM | Ki (human D2 receptor): > 10000 nM | Emax (human 5-HT1A receptor [4]): 33% | EC50 (human 5-HT1A receptor [4]): 100 nM

O=C(NCCN1CC=C(c2cccc(C(F)(F)F)n2)CC1)C1CCC(F)(F)CC1 [Example 12, 4,4-Difluoro-N-{2-[6-(trifluoromethyl)-3′,6′-dihydro[2,4′-bipyridin]-1′ (2′H)-yl]ethyl}-cyclohexane-1-carboxamide]
Ki (human 5-HT1A receptor [1]): 0.2 nM | Emax (human D4 receptor [2]): 52% | EC50 (human D4 receptor [2]): 35 nM | Ki (human D4 receptor [3]): 4.5 nM | Metabolic stability of human liver microsome [5]: 0.115 mL/min/mg protein | IC50 (hERG channel): 3500 nM | Ki (human D2 receptor): 357 nM | Emax (human 5-HT1A receptor [4]): 43% | EC50 (human 5-HT1A receptor [4]): < 10 nM

CNc1cccc(C2CCN(CCNC(=O)C3CCOCC3)CC2)n1 [Example 37, N-(2-{4-[6-(Methylamino)pyridin-2-yl]piperidin-1-yl}ethyl)-tetrahydro-2H-pyran-4-carboxamide]
Ki (human 5-HT1A receptor [1]): 108 nM | Emax (human D4 receptor [2]): 57% | EC50 (human D4 receptor [2]): 52 nM | Ki (human D4 receptor [3]; [6]): 73 nM | Ki (human D2 receptor): > 10000 nM | Emax (human 5-HT1A receptor [4]): 40% | EC50 (human 5-HT1A receptor [4]): 343 nM

Cc1cccc(C2CCN(CCNC(=O)C3CCOC3)CC2)n1 (stereo not drawn) [Example 22]
Ki (human 5-HT1A receptor [1]): 58 nM | Emax (human D4 receptor [2]): 57% | EC50 (human D4 receptor [2]): 57 nM | Ki (human D4 receptor [3]; [6]): 2240 nM | Ki (human D2 receptor): > 10000 nM | Emax (human 5-HT1A receptor [4]): 25% | EC50 (human 5-HT1A receptor [4]): 595 nM

O=C(NCCN1CC=C(c2cccc(C(F)(F)F)n2)CC1)C1CCOCC1 [Example 19]
Ki (human 5-HT1A receptor [1]): 0.8 nM | Emax (human D4 receptor [2]): 84% | EC50 (human D4 receptor [2]): 9 nM | Ki (human D4 receptor [3]): 8 nM | Ki (human D2 receptor): > 10000 nM | Emax (human 5-HT1A receptor [4]): 65% | EC50 (human 5-HT1A receptor [4]): < 10 nM

COCC(C)(C)C(=O)NCCN1CCC(c2cccc(C(F)(F)F)n2)CC1 [Example 6]
Ki (human 5-HT1A receptor [1]): 37 nM | D4 agonistic activity Emax (human D4 receptor [2]): 58% | EC50 (human D4 receptor [2]): < 10 nM | Ki (human D4 receptor [3]; [6]): 101 nM | Metabolic stability of human liver microsome [5]: <0.01 mL/min/mg protein | Ki (human D2 receptor): > 10000 nM | 5-HT1A agonistic activity Emax (human 5-HT1A receptor [4]): 96% | EC50 (human 5-HT1A receptor [4]): 44 nM

O=C(NCCN1CCC(c2cccc(F)n2)CC1)C1CCOCC1 [Example 32]
Ki (human 5-HT1A receptor [1]): 42 nM | Emax (human D4 receptor [2]): 67% | EC50 (human D4 receptor [2]): 7 nM | Ki (human D4 receptor [3]; [6]): 96 nM | Ki (human D2 receptor): > 10000 nM | Emax (human 5-HT1A receptor [4]): 51% | EC50 (human 5-HT1A receptor [4]): 67 nM

CO[C@H]1CC[C@H](C(=O)NCCN2CCC(c3cccc(C)n3)CC2)CC1 [Example 26]
Ki (human 5-HT1A receptor [1]): 79 nM | Emax (human D4 receptor [2]): 36% | EC50 (human D4 receptor [2]): 3390 nM | Ki (human D4 receptor [3]; [6]): 1900 nM | Ki (human D2 receptor): > 10000 nM | Emax (human 5-HT1A receptor [4]): 43% | EC50 (human 5-HT1A receptor [4]): 395 nM

Cc1cccc(C2CCN(CCNC(=O)C3CCCO3)CC2)n1 (stereo not drawn) [Example 24]
Ki (human 5-HT1A receptor [1]): 27 nM | Emax (human D4 receptor [2]): 62% | EC50 (human D4 receptor [2]): 32 nM | Ki (human D4 receptor [3]; [6]): 3380 nM | Ki (human D2 receptor): > 10000 nM | Emax (human 5-HT1A receptor [4]): 50% | EC50 (human 5-HT1A receptor [4]): 67 nM

COCC(C)(C)C(=O)NCCN1CC=C(c2cccc(C)n2)CC1 [Example 17]
Ki (human 5-HT1A receptor [1]): 26 nM | Emax (human D4 receptor [2]): 51% | EC50 (human D4 receptor [2]): 44 nM | Ki (human D4 receptor [3]): 91 nM | Ki (human D2 receptor): > 10000 nM | Emax (human 5-HT1A receptor [4]): 30% | EC50 (human 5-HT1A receptor [4]): 94 nM

CO[C@H]1CC[C@H](C(=O)NCCN2CCC(c3cccc(C(F)(F)F)n3)CC2)CC1 [Example 27]
Ki (human 5-HT1A receptor [1]): 77 nM | Emax (human D4 receptor [2]): 51% | EC50 (human D4 receptor [2]): 1650 nM | Ki (human D4 receptor [3]; [6]): 2470 nM | Ki (human D2 receptor): > 10000 nM | Emax (human 5-HT1A receptor [4]): 44% | EC50 (human 5-HT1A receptor [4]): 570 nM

N#Cc1cccc(C2CCN(CCNC(=O)C3CCOCC3)CC2)n1 [Example 35, N-{2-[4-(6-Cyanopyridin-2-yl)piperidin-1-yl]ethyl}-tetrahydro-2H-pyran-4-carboxamide]
Ki (human 5-HT1A receptor [1]): 278 nM | Emax (human D4 receptor [2]): 52% | EC50 (human D4 receptor [2]): 64 nM | Ki (human D4 receptor [3]; [6]): 2260 nM | Ki (human D2 receptor): > 10000 nM | Emax (human 5-HT1A receptor [4]): 27% | EC50 (human 5-HT1A receptor [4]): 525 nM

Nc1cccc(C2CCN(CCNC(=O)C3CCOCC3)CC2)n1 [Example 36, N-{2-[4-(6-Aminopyridin-2-yl)piperidin-1-yl]ethyl}-tetrahydro-2H-pyran-4-carboxamide]
Ki (human 5-HT1A receptor [1]): 132 nM | Emax (human D4 receptor [2]): 58% | EC50 (human D4 receptor [2]): 31 nM | Ki (human D4 receptor [3]; [6]): 120 nM | Ki (human D2 receptor): > 10000 nM | Emax (human 5-HT1A receptor [4]): 38% | EC50 (human 5-HT1A receptor [4]): 279 nM
